Where a name gives a salt, the structure may show the parent alone.
Molecular target: T1, MASP-2 (CCP1-CCP2-SP) (Homo sapiens, UniProt O00187)
T1 construct: 15 μL of Enzyme MASP-2 (CCP1-CCP2-SP) in Assay Buffer
Assay: Enzymatic Assay for MASP-2
Format: biochemical
Conditions: fluorogenic substrate based on C2 cleavage site, room temperature, 20 mM HEPES pH 7.4
In short: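 Fluorogenic substrate modelled on the C2 cleavage site, run at room temperature in 20 mM HEPES pH 7.4, 140 mM NaCl, 0.1% Tween 20; compounds were added from DMSO serial dilutions before enzyme and substrate. Reactions ran 20 min and were stopped with 0.1 M acetic acid before fluorescence was read. % activity was normalised to DMSO-only and no-enzyme controls; IC50 was taken as Ki, with tight- or slow-binding inhibitors handled separately.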

T1 sequence (O00187 445-686 limits assumed): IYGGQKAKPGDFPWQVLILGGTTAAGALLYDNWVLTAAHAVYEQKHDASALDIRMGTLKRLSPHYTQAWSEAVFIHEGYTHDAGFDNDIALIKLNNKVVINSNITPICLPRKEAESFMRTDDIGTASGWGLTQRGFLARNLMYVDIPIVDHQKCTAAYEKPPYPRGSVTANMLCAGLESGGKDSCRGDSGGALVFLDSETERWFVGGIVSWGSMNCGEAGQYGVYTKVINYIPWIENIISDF
T1 sequence (O00187 298-444 partner limits assumed): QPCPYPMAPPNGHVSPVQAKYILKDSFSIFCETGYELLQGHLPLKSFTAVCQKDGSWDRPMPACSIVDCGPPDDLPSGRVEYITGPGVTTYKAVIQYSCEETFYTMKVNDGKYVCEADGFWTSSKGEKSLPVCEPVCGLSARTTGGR

Structure (SMILES)	Ki
Cc1nc(N)ccc1CNC(=O)Cn1c(-c2cncnc2)cnc(NCCc2ccccc2)c1=O [Compound 23, N-((6-Amino-2-methylpyridin-3-yl)methyl)-2-(2-oxo-3-(phenethylamino)-6-(pyrimidin-5-yl)pyrazin-1(2H)-yl)acetamide]	< 500 nM
Cc1nc(N)ccc1CNC(=O)Cn1c(-c2ccccc2)c(Cl)nc(N2CCCC2)c1=O [Compound 40, N-((6-Amino-2-methylpyridin-3-yl)methyl)-2-(5-chloro-2-oxo-6-phenyl-3-(pyrrolidin-1-yl)pyrazin-1(2H)-yl)acetamide]	< 500 nM
Cc1nc(N)ccc1CNC(=O)Cn1c(-c2ccc(C#N)cc2)cnc(NCCc2ccccc2)c1=O [Compound 27, N-((6-Amino-2-Methylpyridin-3-yl)Methyl)-2-(6-(4-Cyanophenyl)-2-Oxo-3-(Phenethyl Amino)Pyrazin-1(2H)-yl)Acetamide]	< 500 nM
Cc1nc(N)ccc1CNC(=O)Cn1c(-c2ccccc2Cl)cnc(NCCc2ccccc2)c1=O [Compound 29]	< 500 nM
Cc1nc(N)ccc1CNC(=O)Cn1c(C)ncc(NCCc2ccccc2)c1=O [Compound 2, N-((6-Amino-2-Methylpyridin-3-yl)Methyl)-2-(2-Methyl-6-Oxo-5-(Phenethylamino)Pyrimidin-1(6H)-yl)Acetamide, Trifluoroacetate]	< 500 nM
CCCCOc1cnc(NCCc2ccccc2)c(=O)n1CC(=O)NCc1cc2cnccc2[nH]1 [Compound 162, N-((1H-Pyrrolo[3,2-c]Pyridin-2-yl)Methyl)-2-(6-Butoxy-2-Oxo-3-(Phenethylamino)Pyrazin-1(2H)-yl)Acetamide]	< 500 nM
Cn1cc(-c2cnc(NCCC(F)F)c(=O)n2CC(=O)NCc2cc3cnccc3[nH]2)cn1 [Compound 125, N-((1H-Pyrrolo[3,2-c]pyridin-2-yl)methyl)-2-(3-((3,3-difluoropropyl)amino)-6-(1-methyl-1H-pyrazol-4-yl)-2-oxopyrazin-1(2H)-yl)acetamide trifluoroacetate]	< 500 nM
Cn1cc(-c2cnc(NCCc3ccccc3)c(=O)n2CC(=O)NCc2cc(Cl)c3[nH]cnc3c2)cn1 [Compound 130, N-((7-Chloro-1H-Benzo[d]Imidazol-5-yl)Methyl)-2-(6-(1-Methyl-1H-Pyrazol-4-yl)-2-Oxo-3-(Phenethylamino)Pyrazin-1(2H)-yl)Acetamide]	2500 to 10000 nM
Cc1nc(N)ccc1CNC(=O)Cn1c(-c2ccc(Cl)cc2)cnc(NCCc2ccccc2)c1=O [Compound 17, N-((6-Amino-2-Methylpyridin-3-yl)Methyl)-2-(6-(4-Chlorophenyl)-2-Oxo-3-(Phenethylamino)Pyrazin-1(2H)-yl) Acetamide, Trifluoroacetate]	< 500 nM
Cc1nc(N)ccc1CNC(=O)Cn1c(-c2cccc3cc[nH]c23)cnc(NCCc2ccccc2)c1=O [Compound 85]	< 500 nM
Cc1ncc(NCCc2ccccc2)c(=O)n1CC(=O)NCc1ccc2nc(N)[nH]c2c1 [Compound 3, N-((2-Amino-1H-benzo[d]imidazol-6-yl)methyl)-2-(2-methyl-6-oxo-5-(phenethylamino)pyrimidin-1(6H)-yl)acetamide trifluoroacetate]	< 500 nM
Cc1nc(N)ccc1CNC(=O)Cn1c(-c2ccc(N)cc2)cnc(NCCc2ccccc2)c1=O [Compound 31, N-((6-Amino-2-Methylpyridin-3-yl)Methyl)-2-(6-(4-Aminophenyl)-2-Oxo-3-(Phenyethylamino)Pyrazin-1-(2H)-yl)Acetamide]	< 500 nM
Cc1nc(N)ccc1CNC(=O)Cn1c(C#Cc2ccccc2)cnc(NCCc2ccccc2)c1=O [Compound 26, N-((6-Amino-2-Methylpyridin-3-yl)Methyl)-2-(2-Oxo-3-(Phenethylamino)-6-(Phenylethynyl)Pyrazin-1(2H)-yl)Acetamide]	500 to 2500 nM

Further lines, results first:

Ki	Structure (SMILES)
< 500 nM	COC(=O)Cc1cccc(-c2cnc(NCCc3ccccc3)c(=O)n2CC(=O)NCc2cc3cnccc3[nH]2)c1 [Compound 93, Methyl 2-(3-(1-(2(((1H-pyrrolo[3,2-c]pyridin-2-yl)methyl)amino)-2-oxoethyl)-6-oxo-5-(phenethylamino)-1,6-dihydropyrazin-2-yl)phenyl)acetate trifluoroacetate]
< 500 nM	O=C(Cn1c(-c2ccccc2)cnc(N[C@@H](Cc2ccc(O)cc2)C(=O)O)c1=O)NCc1cc2cnccc2[nH]1 [Compound 119, trifluoroacetate]
< 500 nM	CNc1ncc(-c2ccccc2)n(CC(=O)NCc2cc3cnccc3[nH]2)c1=O [Compound 148, N-((1H-Pyrrolo[3,2-c]pyridin-2-yl)methyl)-2-(3-(methylamino)-2-oxo-6-phenylpyrazin-1(2H)-yl)acetamide]
< 500 nM	CCOCCCNc1ncc(-c2ccccc2)n(CC(=O)NCc2cc3cnccc3[nH]2)c1=O [Compound 126, N-((1H-Pyrrolo[3,2-c]Pyridin-2-yl)Methyl)-2-(3-((3-Ethoxypropyl)Amino)-2-Oxo-6-Phenylpyrazin-1(2H)-yl)Acetamide Trifluoroacetate]
500 to 2500 nM	O=C(O)CNc1ncc(-c2ccccc2)n(CC(=O)NCc2cc3cnccc3[nH]2)c1=O [Compound 118, (4-(2-(((1H-Pyrrolo[3,2-c]Pyridin-2-yl)Methyl)Amino)-2-Oxoethyl)-3-Oxo-5-Phenyl-3,4-Dihydropyrazin-2-yl)Glycine Trifluoroacetate]
< 500 nM	COc1ccc(C2(CNc3ncc(-c4ccccc4)n(CC(=O)NCc4cc5cnccc5[nH]4)c3=O)CC2)cc1 [Compound 61, N-((1H-Pyrrolo[3,2-c]pyridin-2-yl)methyl)-2-(3-(((1-(4-methoxyphenyl)cyclopropyl)methyl)amino)-2-oxo-6-phenylpyrazin-1(2H)-yl)acetamide trifluoroacetate]
< 500 nM	O=C(Cn1c(-c2cn[nH]c2)cnc(NCCc2ccccc2)c1=O)NCc1cc2cnccc2[nH]1 [Compound 102, N-((1H-Pyrrolo[3,2-c]pyridin-2-yl)methyl)-2-(2-oxo-3-(phenethylamino)-6-(1H-pyrazol-4-yl)pyrazin-1(2H)-yl)acetamide]
< 500 nM	O=C(Cn1c(-c2ccc(C(F)(F)F)cc2)cnc(NCCc2ccccc2)c1=O)NCc1cc2cnccc2[nH]1 [Compound 21, N-((1H-Pyrrolo[3,2-c]Pyridin-2-yl)Methyl)-2-(2-Oxo-3-(Phenethylamino)-6-(4-(Trifluoromethyl)Phenyl)Pyrazin-1(2H)-yl)Acetamide, Trifluoroacetate]
< 500 nM	O=C(Cn1c(-c2ccccc2)cnc(NCc2ccc(F)c(F)c2)c1=O)NCc1cc2cnccc2[nH]1 [Compound 70, N-((1H-Pyrrolo[3,2-c]pyridin-2-yl)methyl)-2-(3-((3,4-difluorobenzyl)amino)-2-oxo-6-phenylpyrazin-1(2H)-yl)acetamide trifluoroacetate]
< 500 nM	O=C(Cn1c(-c2ccccc2)cnc(NCC2(c3ccc(Cl)cc3)CC2)c1=O)NCc1cc2cnccc2[nH]1 [Compound 57, N-((1H-Pyrrolo[3,2-c]pyridin-2-yl)methyl)-2-(3-(((1-(4-chlorophenyl)cyclopropyl)methyl)amino)-2-oxo-6-phenylpyrazin-1(2H)-yl)acetamide trifluoroacetate]
< 500 nM	Cc1ccc(CCNc2ncc(-c3ccccc3)n(CC(=O)NCc3cc4cnccc4[nH]3)c2=O)cc1 [Compound 138, N-((1H-Pyrrolo[3,2-c]pyridin-2-yl)methyl)-2-(3-((4-methylphenethyl)amino)-2-oxo-6-phenylpyrazin-1(2H)-yl)acetamide]
< 500 nM	COc1ccc(CNc2ncc(-c3ccccc3)n(CC(=O)NCc3cc4cnccc4[nH]3)c2=O)cc1 [Compound 150, N-((1H-Pyrrolo[3,2-c]pyridin-2-yl)methyl)-2-(3-((4-methoxybenzyl)amino)-2-oxo-6-phenylpyrazin-1(2H)-yl)acetamide]
< 500 nM	Cn1c(CNC(=O)Cn2c(-c3ccccc3)cnc(NCCc3ccccc3)c2=O)cc2cnccc21 [Compound 46, N-((1-Methyl-1H-Pyrrolo[3,2-c]Pyridin-2-yl)Methyl)-2-(2-Oxo-3-(Phenethylamino)-6-Phenylpyrazin-1(2H)-yl)Acetamide Trifluoroacetate]
< 500 nM	O=C(Cn1c(-c2cccc(C3(O)COC3)c2)cnc(NCCc2ccccc2)c1=O)NCc1cc2cnccc2[nH]1 [Compound 99, N-((1H-Pyrrolo[3,2-c]pyridin-2-yl)methyl)-2-(6-(3-(3-hydroxyoxetan-3-yl)phenyl)-2-oxo-3-(phenethylamino)pyrazin-1(2H)-yl)acetamide]
< 500 nM	Cn1cc(NCCc2ccccc2)c(=O)n(CC(=O)NCc2cc3cnccc3[nH]2)c1=O [Compound 161, N-((1H-Pyrrolo[3,2-c]Pyridin-2-yl)Methyl)-2-(3-Methyl-2,6-Dioxo-5-(Phenethylamino)-3,6-Dihydropyrimidin-1(2H)-yl)Acetamide]
< 500 nM	CC(C)Nc1ncc(-c2ccccc2)n(CC(=O)NCc2cc3cnccc3[nH]2)c1=O [Compound 134, N-((1H-Pyrrolo[3,2-c]Pyridin-2-yl)Methyl)-2-(3-(Isopropylamino)-2-Oxo-6-Phenylpyrazin-1(2H)-yl)Acetamide]
< 500 nM	O=C(Cn1c(-c2ccc(F)cc2)cnc(NCCc2ccccc2)c1=O)NCc1cc2cnccc2[nH]1 [Compound 106, N-((1H-Pyrrolo[3,2-c]pyridin-2-yl)methyl)-2-(6-(4-fluorophenyl)-2-oxo-3-(phenethylamino)pyrazin-1(2H)-yl)acetamide]
< 500 nM	CC(C)(C)OC(=O)N1CC(n2cc(-c3cnc(NCCc4ccccc4)c(=O)n3CC(=O)NCc3cc4cnccc4[nH]3)cn2)C1 [Compound 111, tert-Butyl 3-(4-(1-(2(((1H-pyrrolo[3,2-c]pyridin-2-yl)methyl)amino)-2-oxoethyl)-6-oxo-5-(phenethylamino)-1,6-dihydropyrazin-2-yl)-1H-pyrazol-1-yl)azetidine-l-carboxylate]

From US12110288B2, “MASP-2 inhibitors and methods of use” (Omeros Corporation, priority 2019, dated 2024)
